Experiments:
Type in all cases: in vivo
Indian millet [1] = assay: Herbicidal activity by field soil treatment (Test example 2); parameters: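 index 0 to 10 in 10% steps of herbicidal effect with 10 meaning complete death and 0 below 10%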; conditions: 1000 g effective component per hectare, day 21 after the treatment
Procedure, shortened: (§1)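 Seeds of the four weeds sown in field soil in pots; wettable powder diluted in water sprayed pre-emergence on soil surface at 1000 L/ha, giving 1000 g active per hectare. Greenhouse grown; herbicidal effect scored on day 21 after treatment by set criteria.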

A. retroflexus [2] = assay: as above; parameters: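 index 0 to 10 in 10% steps of herbicidal effect with 10 meaning complete death and 0 below 10%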; conditions: 1000 g effective component per hectare, day 21 after the treatment
Procedure, shortened: as §1

Echinochloa crus-galli [3] = assay: as above; parameters: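 index 0 to 10 in 10% steps of herbicidal effect with 10 meaning complete death and 0 below 10%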; conditions: 1000 g effective component per hectare, day 21 after the treatment
Procedure, shortened: as §1

Setaria viridis = assay: Herbicidal activity by field foliage treatment (Test example 3); conditions: 1000 g effective component per hectare, day 14 after the treatment;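 also: index 0 to 10 in 10% steps of herbicidal effect with 10 meaning complete death and 0 below 10%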
Procedure, shortened: (§2)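 Potted field-soil plants grown 2 weeks in a greenhouse were sprayed over the whole foliage with diluted wettable powder at 1000 L/ha, delivering 1000 g active ingredient per hectare. Herbicidal effect scored by visual criteria 14 days after treatment.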

Indian millet [4] = assay: as above; parameters: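 index 0 to 10 in 10% steps of herbicidal effect with 10 meaning complete death and 0 below 10%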; conditions: 1000 g effective component per hectare, day 14 after the treatment
Procedure, shortened: (§3)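 Field soil in pots; Indian millet and A. retroflexus grown 2 weeks in greenhouse, then sprayed over whole plant with water-diluted wettable powder at 1000 L/ha, giving 1000 g active component/ha. Herbicidal effect scored by set criteria on day 14 after treatment.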

A. retroflexus [5] = assay: as above; parameters: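 index 0 to 10 in 10% steps of herbicidal effect with 10 meaning complete death and 0 below 10%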; conditions: 1000 g effective component per hectare, day 14 after the treatment
Procedure, shortened: as §3

foxtail = assay: Herbicidal activity by field soil treatment (Test example 2); conditions: 1000 g effective component per hectare, day 21 after the treatment;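 also: index 0 to 10 in 10% steps of herbicidal effect with 10 meaning complete death and 0 below 10%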
Procedure, shortened: as §1

Scirpus juncoides Rocxb. = assay: Herbicidal activity by paddy field soil treatment (Test Example 1); parameters: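 index 0 to 10 in 10% steps of herbicidal effect with 10 meaning complete death and 0 below 10%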; conditions: applied on water surface, 1000 g of effective component per hectare, day 21 after the treatment
Procedure, shortened: (§4)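 Paddy soil in pots sown with seeds, flooded to 3 cm; next day wettable powder diluted in water applied to water surface at 1000 g active ingredient/ha. Greenhouse-grown; herbicidal effect scored on day 21 after treatment against rating criteria.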

Echinochloa oryzicola = assay: as above; parameters: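 index 0 to 10 in 10% steps of herbicidal effect with 10 meaning complete death and 0 below 10%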; conditions: 1000 g of effective component per hectare, evaluated on day 21 after the treatment, criteria of Table 72
Procedure, shortened: as §4

Monochoria vaginalis = assay: as above; parameters: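 index 0 to 10 in 10% steps of herbicidal effect with 10 meaning complete death and 0 below 10%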; conditions: 1000 g of effective component per hectare, evaluated on day 21 after the treatment, criteria of Table 72
Procedure, shortened: as §4

Echinochloa crus-galli [6] = assay: Herbicidal activity by field foliage treatment (Test example 3); parameters: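 index 0 to 10 in 10% steps of herbicidal effect with 10 meaning complete death and 0 below 10%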; conditions: 1000 g effective component per hectare, day 14 after the treatment
Procedure, shortened: as §2

Row | Compound | herbicidal effect index, Abutilon theophrasti (Indian millet [1]) | herbicidal effect index, Amaranthus retroflexus (A. retroflexus [2]) | herbicidal effect index, Echinochloa crus-galli (Echinochloa crus-galli [3]) | herbicidal effect index, Setaria viridis (Setaria viridis) | herbicidal effect index, Abutilon theophrasti (Indian millet [4]) | herbicidal effect index, Amaranthus retroflexus (A. retroflexus [5]) | herbicidal effect index, Setaria viridis (foxtail) | herbicidal effect index, S. juncoides Rocxb. (Scirpus juncoides Rocxb.) | Herbicidal effects index number, Echinochloa oryzicola (Echinochloa oryzicola) | Herbicidal effects index number, Monochoria vaginalis (Monochoria vaginalis) | herbicidal effect index, Echinochloa crus-galli (Echinochloa crus-galli [6])
1 | Cn1nc(C(=O)C2=C(O)CCCC2=O)c(=O)n(-c2ccccc2C#N)c1=O [I-72] | 10 | 10 | 9 | 10 | 10 | 10 | 10 | 10 | 10 | 10 | 10
2 | Cn1nc(C(=O)C2=C(O)CCCC2=O)c(=O)n(-c2cccc(C#N)c2)c1=O [I-73] | 10 | 10 | 9 | 10 | 10 | 10 | 8 | 10 | 10 | 10 | 10
3 | Cn1nc(C(=O)C2=C(O)CCCC2=O)c(=O)n(-c2ccc(C#N)cc2)c1=O [I-74] | 10 | 10 | 10 | 9 | 9 | 10 | 7 | 10 | 10 | 10 | 9
4 | Cn1nc(C(=O)C2=C(O)CCCC2=O)c(=O)n(-c2ccc(F)c(F)c2)c1=O [I-75] | 10 | 10 | 9 | 10 | 10 | 10 | 7 | 10 | 10 | 10 | 10
5 | Cn1nc(C(=O)C2=C(O)CCCC2=O)c(=O)n(-c2cc(F)cc(F)c2)c1=O [I-76] | 10 | 10 | 10 | 9 | 10 | 10 | 9 | 10 | 10 | 10 | 10
6 | Cn1nc(C(=O)C2=C(O)CCCC2=O)c(=O)n(-c2cccc(F)c2F)c1=O [I-77] | 10 | 10 | 9 | 10 | 10 | 10 | 9 | 10 | 10 | 10 | 10
7 | Cn1nc(C(=O)C2=C(O)CCCC2=O)c(=O)n(-c2cc(F)ccc2F)c1=O [I-79] | 10 | 10 | 9 | 10 | 10 | 10 | 10 | 10 | 10 | 10 | 10
8 | Cn1nc(C(=O)C2=C(O)CCCC2=O)c(=O)n(-c2c(F)cccc2F)c1=O [I-80] | 9 | 10 | 9 | 7 | 9 | 10 | 9 | 10 | 10 | 10 | 10
9 | Cn1nc(C(=O)C2=C(O)CCCC2=O)c(=O)n(-c2ccc(Cl)c(Cl)c2)c1=O [I-81] | 10 | 10 | 9 | 10 | 10 | 10 | 7 | 10 | 10 | 10 | 10
10 | Cn1nc(C(=O)C2=C(O)CCCC2=O)c(=O)n(-c2cc(Cl)cc(Cl)c2)c1=O [I-82] | 9 | 10 | 9 | 10 | 10 | 10 | 9 | 10 | 8 | 10 | 10
11 | Cn1nc(C(=O)C2=C(O)CCCC2=O)c(=O)n(-c2cccc(Cl)c2Cl)c1=O [I-83] | 10 | 10 | 9 | 10 | 10 | 10 | 9 | 10 | 10 | 10 | 10
12 | Cn1nc(C(=O)C2=C(O)CCCC2=O)c(=O)n(-c2ccc(Cl)cc2Cl)c1=O [I-84] | 10 | 10 | 9 | 10 | 10 | 10 | 9 | 10 | 10 | 10 | 9
13 | Cn1nc(C(=O)C2=C(O)CCCC2=O)c(=O)n(-c2cc(Cl)ccc2Cl)c1=O [I-85] | 10 | 10 | 9 | 10 | 10 | 10 | 9 | 10 | 10 | 10 | 9
14 | Cn1nc(C(=O)C2=C(O)CCCC2=O)c(=O)n(-c2c(Cl)cccc2Cl)c1=O [I-86] | 9 | 10 | 10 | 9 | 10 | 10 | 9 | 10 | 10 | 10 | 9
15 | Cc1cccc(-n2c(=O)c(C(=O)C3=C(O)CCCC3=O)nn(C)c2=O)c1C [I-89] | 10 | 10 | 9 | 10 | 10 | 10 | 8 | 10 | 10 | 10 | 9

Source: US8969554B2, “6-acyl-1,2,4-triazine-3,5-dione derivative and herbicides” (Kumiai Chemical Industry Co., Ltd., priority 2010, dated 2015)
